In US20040001827A1, “Serum albumin binding peptides for tumor targeting” (priority 2002, published 2004):
Read-outs that look alike come from different tables or passages of the source. Where a SMILES comes first, the peptide text is derived from it. Bridges are numbered along the chain shown (N, C = ends).

Target: T1, rabbit albumin (Oryctolagus cuniculus, UniProt P49065)
T1 construct: purchased Sigma, St. Louis Mo
Experiment: SA08b binding (peptide competition) assay, rabbit albumin
Settings: for improvement in IC50 relative to core sequence (SA34 and SA19): rabbit albumin
Excerpt: Plates were blocked as described above.
Peptides corresponding to identified phage sequences were synthesized and their affinity for rat, rabbit or mouse albumin measured using the SA08b binding assay.

T1 sequence (P49065 25-608): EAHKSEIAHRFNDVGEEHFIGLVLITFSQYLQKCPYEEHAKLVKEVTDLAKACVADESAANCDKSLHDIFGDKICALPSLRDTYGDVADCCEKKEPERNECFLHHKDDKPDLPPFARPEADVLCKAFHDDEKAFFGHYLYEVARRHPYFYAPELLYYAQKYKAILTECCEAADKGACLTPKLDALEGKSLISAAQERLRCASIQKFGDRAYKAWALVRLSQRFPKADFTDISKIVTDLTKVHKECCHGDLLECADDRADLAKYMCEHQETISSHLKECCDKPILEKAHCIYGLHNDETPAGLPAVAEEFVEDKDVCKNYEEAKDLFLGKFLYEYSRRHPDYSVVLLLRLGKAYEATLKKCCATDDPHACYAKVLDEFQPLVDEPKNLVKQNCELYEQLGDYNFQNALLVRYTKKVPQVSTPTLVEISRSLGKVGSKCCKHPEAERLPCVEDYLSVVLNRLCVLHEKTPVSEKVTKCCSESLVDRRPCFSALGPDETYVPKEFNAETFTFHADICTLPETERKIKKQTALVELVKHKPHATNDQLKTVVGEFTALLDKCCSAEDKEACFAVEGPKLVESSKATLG

SMILES | improvement in IC50 relative to core sequence (SA34 and SA19) | IC50 [µM] | other results
CC[C@H](C)[C@H](NC(=O)[C@H](CC(C)C)NC(=O)[C@H](CCCNC(=N)N)NC(C)=O)C(=O)N[C@@H](CCC(=O)O)C(=O)N[C@@H](CC(=O)O)C(=O)N[C@H](C(=O)N[C@H]1CSSC[C@@H](C(=O)N[C@@H](CC(C)C)C(=O)N[C@@H](Cc2c[nH]c3ccccc23)C(=O)N[C@@H](CCC(=O)O)C(=O)N[C@@H](CC(=O)O)C(N)=O)NC(=O)CNC(=O)[C@H](Cc2c[nH]c3ccccc23)NC(=O)[C@H](CCCNC(=N)N)NC(=O)[C@@H]2CCCN2C(=O)[C@H](CC(C)C)NC1=O)[C@@H](C)CC [SA22] (Ac-RLIEDICLPRWGCLWED-NH2; disulfide 7-13) | 60 fold |  | 
CC[C@H](C)[C@H](NC(=O)[C@H](CC(=O)O)NC(C)=O)C(=O)N[C@H]1CSSC[C@@H](C(=O)N[C@@H](CC(C)C)C(=O)N[C@@H](Cc2c[nH]c3ccccc23)C(=O)N[C@@H](CCC(=O)O)C(=O)N[C@@H](CC(=O)O)C(N)=O)NC(=O)CNC(=O)[C@H](Cc2c[nH]c3ccccc23)NC(=O)[C@H](CCCNC(=N)N)NC(=O)[C@@H]2CCCN2C(=O)[C@H](CC(C)C)NC1=O [SA26] (Ac-DICLPRWGCLWED-NH2; disulfide 3-9) | about 8.6 fold |  | 
CC(=O)N[C@H]1CSSC[C@@H](C(=O)N[C@@H](CC(C)C)C(=O)N[C@@H](Cc2c[nH]c3ccccc23)C(=O)N[C@@H](CCC(=O)O)C(=O)N[C@@H](CC(=O)O)C(N)=O)NC(=O)CNC(=O)[C@H](Cc2c[nH]c3ccccc23)NC(=O)[C@H](CCCNC(=N)N)NC(=O)[C@@H]2CCCN2C(=O)[C@H](CC(C)C)NC1=O [SA28] (Ac-CLPRWGCLWED-NH2; disulfide 1-7) |  | > 400 | 
CC[C@H](C)[C@H](NC(=O)[C@H](CC(C)C)NC(=O)[C@H](CCCNC(=N)N)NC(C)=O)C(=O)N[C@@H](CCC(=O)O)C(=O)N[C@@H](CC(=O)O)C(=O)N[C@H](C(=O)N[C@H]1CSSC[C@@H](C(=O)N[C@@H](CC(C)C)C(N)=O)NC(=O)CNC(=O)[C@H](Cc2c[nH]c3ccccc23)NC(=O)[C@H](CCCNC(=N)N)NC(=O)[C@@H]2CCCN2C(=O)[C@H](CC(C)C)NC1=O)[C@@H](C)CC [SA33] (Ac-RLIEDICLPRWGCL-NH2; disulfide 7-13) | approximately 6 fold |  | 
CC[C@H](C)[C@H](NC(=O)[C@H](CC(=O)O)NC(C)=O)C(=O)N[C@H]1CSSC[C@@H](C(=O)N[C@@H](CC(C)C)C(N)=O)NC(=O)CNC(=O)[C@H](Cc2c[nH]c3ccccc23)NC(=O)[C@H](CCCNC(=N)N)NC(=O)[C@@H]2CCCN2C(=O)[C@H](CC(C)C)NC1=O [SA34] (Ac-DICLPRWGCL-NH2; disulfide 3-9) |  | ~25 | 
CC[C@H](C)[C@H](NC(C)=O)C(=O)N[C@H]1CSSC[C@@H](C(N)=O)NC(=O)CNC(=O)[C@H](Cc2c[nH]c3ccccc23)NC(=O)[C@H](CCCNC(=N)N)NC(=O)[C@@H]2CCCN2C(=O)[C@H](CC(C)C)NC1=O [SA36] (Ac-ICLPRWGC-NH2; disulfide 2-8) |  |  | IC50 (Table 9, rabbit albumin, peptide truncation series, read-out: IC50): > 250 µM
